Values quoted from earlier work in patent publication US20080103103A1, “Reagents and methods to treat ocular diseases and infection” (priority 2006, published 2008).

Tests used:
HSV = HSV early onset
adenovirus [1] = test system: adenovirus
adenovirus [2] = test system: adenovirus; remark: listed apart in the source
adenovirus [3] = conditions: 0.5%
adenovirus [4] = conditions: 0.2%
adenovirus [5] = conditions: 3%, ocular application

Structure (SMILES): Nc1nc2c(ncn2COCCO)c(=O)[nH]1 [Acyclovir]
- effectiveness against HSV (HSV): effective
- effectiveness against adenovirus (adenovirus [1]): not adenovirus

Structure (SMILES): O=C(O[C@@H]1Cc2c(O)cc(O)cc2O[C@@H]1c1cc(O)c(O)c(O)c1)c1cc(O)c(O)c(O)c1 [EGCG, (2R,3R)-2-(3,4,5-Trihydroxyphenyl)-3,4-dihydro-1(2H)-benzopyran-3,5,7-triol 3-(3,4,5-trihydroxybenzoate)]
- activity against adenovirus in vitro (viral load) (adenovirus [2]; in vitro): greatly reducing the viral load
- concentration effective for in vitro cultures (adenovirus [2]; in vitro cultures, adenovirus): 0.005%

Structure (SMILES): Nc1ccn(C[C@@H](CO)OCP(=O)(O)O)c(=O)n1 [cidofovir]
- result in animal studies (adenovirus [3]): some positive results
- result in clinical trials (adenovirus [4]): failed

Structure (SMILES): CC(=O)OCC(CCn1cnc2cnc(N)nc21)COC(C)=O [famciclovir]
- effectiveness against HSV (HSV): effective
- effectiveness against adenovirus (adenovirus [1]): not adenovirus

Structure (SMILES): Nc1nc(O)c2ncn(COC(CO)CO)c2n1 [gancicolovir]
- activity against adenovirus (adenovirus [5]): very minor activity
